Results on 43 compounds are retold here after patent US20230348426A1, “OXOPYRROLIDINE FPR2 AGONISTS” (Bristol-Myers Squibb Company, priority 2020, published 2023).

For test [1], the target named is human FPR1 (Homo sapiens (Human), UniProt P21462). As to the kind of experiment: FPR1 cyclic adenosine monophosphate (cAMP) assay. The note with it: CHO cells overexpressing human FPR1; forskolin 10 µM; inhibition of cAMP production; read-out: hFPR1 cAMP EC50. Format: cell-based. The essentials: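 CHO cells overexpressing human FPR1 (4,000 cells/well) stimulated with 10 µM forskolin plus 200 µM IBMX in the presence of compound (0.020 nM–100 µM, 1% DMSO), 30 min at room temperature. Intracellular cAMP measured by HTRF. Inhibition of cAMP production fitted to a 4-parameter logistic equation.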
A general note: Changes in cAMP serve as a functional read-out for many G protein-coupled receptors.

The target in test [2] is human FPR2 (Homo sapiens (Human), UniProt P25090). As to the kind of experiment: FPR2 cyclic adenosine monophosphate (cAMP) assay. The class given is cell-based. The note with it: CHO cells overexpressing human FPR2; forskolin 5 µM; inhibition of cAMP production; read-out: hFPR2 cAMP2 EC50. The essentials:
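CHO cells overexpressing human FPR2 (2,000/well) incubated 30 min at room temperature with compound (0.020 nM–100 µM, 1% DMSO), 5 µM forskolin and 200 µM IBMX.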

Sequence of human FPR1 (P21462 whole entry): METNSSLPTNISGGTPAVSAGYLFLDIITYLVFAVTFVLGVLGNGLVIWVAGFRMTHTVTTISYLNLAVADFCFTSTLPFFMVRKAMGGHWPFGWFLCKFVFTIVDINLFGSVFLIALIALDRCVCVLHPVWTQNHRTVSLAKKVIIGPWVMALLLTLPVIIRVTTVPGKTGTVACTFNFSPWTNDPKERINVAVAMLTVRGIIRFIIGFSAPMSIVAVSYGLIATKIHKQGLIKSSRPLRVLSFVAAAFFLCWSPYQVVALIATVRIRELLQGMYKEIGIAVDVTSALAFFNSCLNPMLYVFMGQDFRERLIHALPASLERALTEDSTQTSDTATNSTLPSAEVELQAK
Sequence of human FPR2 (P25090 whole entry): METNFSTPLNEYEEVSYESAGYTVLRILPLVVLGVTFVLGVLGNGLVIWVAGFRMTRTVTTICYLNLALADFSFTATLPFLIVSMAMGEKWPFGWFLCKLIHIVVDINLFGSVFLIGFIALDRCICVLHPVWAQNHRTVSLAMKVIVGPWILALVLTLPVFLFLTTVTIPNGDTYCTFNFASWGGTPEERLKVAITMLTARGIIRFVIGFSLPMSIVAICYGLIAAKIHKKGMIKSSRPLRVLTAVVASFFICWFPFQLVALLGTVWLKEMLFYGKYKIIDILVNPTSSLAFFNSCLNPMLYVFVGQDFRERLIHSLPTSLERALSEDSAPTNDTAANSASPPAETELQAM

Consider `COc1cc(F)c([C@@H]2CN(c3cncn(C(CO)C(F)(F)F)c3=O)C(=O)[C@H]2NC(=O)c2ccc(Cl)cc2)c(F)c1` (some centres unmarked) [Example 517], for which the figures for the EC50 in test [1] and in test [2] were 1800 nM and 2.8 nM, respectively.
`COc1cc(F)c([C@@H]2CN(c3cncn(C(CO)C(F)(F)F)c3=O)C(=O)[C@H]2NC(=O)c2ccc(Cl)cc2)c(F)c1` (some centres unmarked) [Example 518]: the EC50 (in general, the concentration needed to bring the measured effect to its halfway point) in test [1] was found to be 3300 nM; in test [2], 2 nM.
For the compound `COc1cc(F)c([C@@H]2CN(c3cccn4ccnc34)C(=O)[C@H]2NC(=O)c2ccc(Cl)cc2)c(F)c1` [Example 519], the EC50 in test [1] worked out at 480 nM; in test [2], 3.1 nM.
With `CCn1cnc(C)c(N2C[C@@H](c3c(F)cc(OC)cc3F)[C@H](NC(=O)c3ccc(Cl)cc3)C2=O)c1=O` [Example 520], the EC50 is 1300 nM in test [1] and 4.9 nM in test [2].
The matching figures for `COCCn1cnc(C)c(N2C[C@@H](c3c(F)cc(OC)cc3F)[C@H](NC(=O)c3ccc(Cl)cc3)C2=O)c1=O` [Example 521]: 330 nM and 9 nM.
As to `COc1cc(F)c([C@@H]2CN(c3c(C)ncn(CC4(C)COC4)c3=O)C(=O)[C@H]2NC(=O)c2ccc(Cl)cc2)c(F)c1` [Example 522], the EC50 in test [1] was over 5000 nM; in test [2], 5.4 nM.
Regarding `COc1cc(F)c([C@H]2[C@H](NC(=O)c3ccc(OC(F)F)cc3)C(=O)N(c3cccc(C4CCN(C)CC4)n3)[C@H]2C)c(F)c1` [Example 523], the results for the 50% effective concentration (EC50) in test [1] and in test [2] were 3600 nM and 1.4 nM, respectively.
Consider `COc1cc(F)c([C@H]2[C@H](NC(=O)c3ccc(OC(F)F)cc3)C(=O)N(c3cccc(C4CCN(CCO)CC4)n3)[C@H]2C)c(F)c1` [Example 524], for which the figures for the EC50 in test [1] and in test [2] were 1400 nM and 0.8 nM, respectively.
Turning to `COc1cc(F)c([C@@H]2CN(c3cccc(C4CCN(C)CC4)n3)C(=O)[C@H]2NC(=O)c2ccc(OC(F)F)cc2)c(F)c1` [Example 525], the values for the EC50 in test [1] and in test [2] were 420 nM and 1.4 nM, respectively.
Consider `COc1cc(F)c([C@H]2[C@H](NC(=O)c3ccc(OC(F)F)cc3)C(=O)N(c3cccc(N4C[C@@H]5C[C@H]4CN5C)n3)[C@H]2C)c(F)c1` [Example 526], for which the values for the EC50 in test [1] and in test [2] were 2300 nM and 1.1 nM, respectively.
The matching figures for `COc1cc(F)c([C@@H]2CN(c3cccc(C4CCN(CCO)CC4)n3)C(=O)[C@H]2NC(=O)c2ccc(OC(F)F)cc2)c(F)c1` [Example 527]: 770 nM and 1.3 nM.
Regarding `COc1cc(F)c([C@H]2[C@H](NC(=O)c3ccc(OC(F)F)cc3)C(=O)N(c3cccc(C4CCNCC4)n3)[C@H]2C)c(F)c1` [Example 528], the EC50 is 600 nM in test [1] and 0.2 nM in test [2].
Turning to `COc1cc(C2CCNCC2)nc(N2C(=O)[C@@H](NC(=O)c3ccc(OC(F)F)cc3)[C@H](c3c(F)cc(OC)cc3F)[C@@H]2C)c1` [Example 529], the EC50 in test [1] was over 5000 nM; in test [2], 6.7 nM.
Consider `COc1cc(F)c([C@@H]2CN(c3c(C)ccn(C4CCNC4)c3=O)C(=O)[C@H]2NC(=O)c2ccc(Cl)cc2)c(F)c1` (some centres unmarked) [Example 530], for which the EC50 in test [1] is 680 nM; in test [2], 3.1 nM.
For `COc1cc(F)c([C@@H]2CN(c3cccc(N4C[C@@H]5C[C@H]4CN5C)n3)C(=O)[C@H]2NC(=O)c2ccc(OC(F)F)cc2)c(F)c1` [Example 531], the EC50 is 3200 nM in test [1] and 1.6 nM in test [2].
With `COc1cc(F)c([C@@H]2CN(c3ncn(CC(C)C)n3)C(=O)[C@H]2NC(=O)c2ccc(Cl)cc2)c(F)c1` [Example 532], the EC50 is 630 nM in test [1] and 2.3 nM in test [2].
The matching figures for `COc1cc(F)c([C@@H]2CN(c3c(C)ncn(CC(F)F)c3=O)C(=O)[C@H]2NC(=O)c2ccc(Cl)cc2)c(F)c1` [Example 533]: 900 nM and 4 nM.
For `COc1cc(C2CCNCC2)nc(N2C[C@@H](c3c(F)cc(OC)cc3F)[C@H](NC(=O)c3ccc(OC(F)F)cc3)C2=O)c1` [Example 534], the EC50 is over 5000 nM in test [1] and 3.4 nM in test [2].
Turning to `COc1cc(F)c([C@@H]2CN(c3nc(OCC4CCOC4)ccc3F)C(=O)[C@H]2NC(=O)c2ccc(OC(F)F)cc2)c(F)c1` (some centres unmarked) [Example 535], the EC50 in test [1] worked out at 200 nM; in test [2], 1 nM.
As to `COc1cc(F)c([C@@H]2CN(c3cccc(C4CCN(C)CC4)n3)C(=O)[C@H]2NC(=O)c2ccc(OC(F)F)cc2)c(F)c1` [Example 536], the EC50 in test [1] was 650 nM; in test [2] it was 2.1 nM.
As to `COc1cc(F)c([C@H]2[C@H](NC(=O)c3ccc(OC(F)F)cc3)C(=O)N(c3cccc(C4CCN(CC(F)F)CC4)n3)[C@H]2C)c(F)c1` [Example 537], the EC50 in test [1] amounted to 35 nM; in test [2], 9.9 nM.
Turning to `COc1cc(C2CCN(C)CC2)nc(N2C(=O)[C@@H](NC(=O)c3ccc(OC(F)F)cc3)[C@H](c3c(F)cc(OC)cc3F)[C@@H]2C)c1` [Example 538], the values for the EC50 in test [1] and in test [2] were 2000 nM and 1.3 nM, respectively.
Regarding `COc1cc(C2CCOCC2)nc(N2C(=O)[C@@H](NC(=O)c3ccc(OC(F)F)cc3)[C@H](c3c(F)cc(OC)cc3F)[C@H]2C)c1` [Example 539], the EC50 in test [1] was 470 nM; in test [2], 6.8 nM.
Regarding `COc1cc(F)c([C@@H]2CN(c3ncn(CC(F)F)n3)C(=O)[C@H]2NC(=O)c2ccc(Cl)cc2)c(F)c1` [Example 541], the EC50 came out at 810 nM in test [1] and 20 nM in test [2].
`COc1cc(F)c([C@@H]2CN(c3cncn(C4CCOCC4)c3=O)C(=O)[C@H]2NC(=O)c2ccc(Cl)cc2)c(F)c1` [Example 542]: the EC50 in test [1] stood at 1200 nM; in test [2], 5.7 nM.
In the case of `COc1cc(F)c([C@@H]2CN(c3cncnc3OC3CCOCC3)C(=O)[C@H]2NC(=O)c2ccc(Cl)cc2)c(F)c1` [Example 543], the EC50 in test [1] was 1900 nM; in test [2], 6.9 nM.
As for `COc1cc(F)c([C@H]2[C@H](NC(=O)c3ccc(Cl)cc3)C(=O)N(c3cccc(N4CC[C@@H](O)C4)n3)[C@@H]2C)c(F)c1` [Example 545], the values for the EC50 in test [1] and in test [2] were 330 nM and 6 nM, respectively.
The matching figures for `COc1cc(F)c([C@@H]2CN(c3nccn(C4CC4)c3=O)C(=O)[C@H]2NC(=O)c2ccc(Cl)cc2)c(F)c1` [Example 546]: 1800 nM and 2.1 nM.
Take `COc1cc(F)c([C@@H]2CN(c3cncn(CC4CCOCC4)c3=O)C(=O)[C@H]2NC(=O)c2ccc(Cl)cc2)c(F)c1` [Example 547]: the EC50 in test [1] turned out to be 2400 nM; in test [2], 4.5 nM.
For `COc1cc(C2CCN(CC(F)(F)F)CC2)nc(N2C(=O)[C@@H](NC(=O)c3ccc(OC(F)F)cc3)[C@H](c3c(F)cc(OC)cc3F)[C@@H]2C)c1` [Example 548], in that order: over 5000 nM and 280 nM.
For `COc1cc(F)c([C@@H]2CN(c3nc(C4CCN(CC(F)F)CC4)ccc3F)C(=O)[C@H]2NC(=O)c2ccc(OC(F)F)cc2)c(F)c1` [Example 549], in that order: 28 nM and 4.1 nM.
As for `COc1cc(F)c([C@@H]2CN(c3nc(C4CCN(CC(F)(F)F)CC4)ccc3F)C(=O)[C@H]2NC(=O)c2ccc(OC(F)F)cc2)c(F)c1` [Example 550], the values for the EC50 in test [1] and in test [2] were 3.5 nM and 10 nM, respectively.
Turning to `COc1cc(F)c([C@@H]2CN(c3nc(C(F)(F)F)ccc3C#N)C(=O)[C@H]2NC(=O)c2ccc(OC(F)(F)F)cc2)c(F)c1` [Example 551], the EC50 in test [1] came out at 77 nM; in test [2], 1.5 nM.
Consider `COc1cc(N2C[C@@H]3C[C@H]2CO3)nc(N2C(=O)[C@@H](NC(=O)c3ccc(OC(F)(F)F)cc3)[C@H](c3c(F)cc(OC)cc3F)[C@@H]2C)c1` [Example 552], for which the values for the EC50 in test [1] and in test [2] were 440 nM and 130 nM, respectively.
As for `COc1cc(F)c([C@H]2[C@H](NC(=O)c3ccc(Cl)cc3)C(=O)N(c3nccn(CC(F)F)c3=O)[C@@H]2C)c(F)c1` [Example 554], the EC50 in test [1] came to 2400 nM; in test [2], 4.3 nM.
Regarding `COc1cc(F)c([C@H]2[C@H](NC(=O)c3ccc(OC(F)F)cc3)C(=O)N(c3cncn(CC(F)F)c3=O)[C@H]2C)c(F)c1` [Example 555], the EC50 in test [1] was 530 nM; in test [2], 31 nM.
Take `COc1cc(F)c([C@@H]2CN(c3nc(C4CCN(C)CC4)ccc3F)C(=O)[C@H]2NC(=O)c2ccc(OC(F)F)cc2)c(F)c1` [Example 556]: the EC50 is 2000 nM in test [1] and 2.2 nM in test [2].
Turning to `COc1cc(F)c([C@H]2[C@H](NC(=O)c3ccc(OC(F)F)cc3)C(=O)N(c3cccc(OCCO)n3)[C@H]2C)c(F)c1` [Example 559], the EC50 in test [1] came to 450 nM; in test [2] it was 6.6 nM.
As to `COc1cc(F)c([C@H]2[C@H](NC(=O)c3ccc(Cl)cc3)C(=O)N(c3nccn(CC(F)F)c3=O)[C@H]2C)c(F)c1` [Example 560], the EC50 in test [1] is 120 nM; in test [2] it was 0.8 nM.
For the compound `COc1cc(F)c([C@H]2[C@H](NC(=O)c3ccc(OC(F)F)cc3)C(=O)N(c3cccc(N4CC[C@@H](O)C4)n3)[C@H]2C)c(F)c1` [Example 561], the EC50 stood at 170 nM in test [1] and 4.3 nM in test [2].
`COCC(CO)n1ccc(C)c(N2C[C@@H](c3ccc(OC)cc3)[C@H](NC(=O)c3ccc(OC(F)(F)F)cc3)C2=O)c1=O` (some centres unmarked) [Example 563]: the EC50 in test [1] and in test [2] was 2.3 nM in each case.
Consider `COCC(CO)n1ccc(C)c(N2C[C@@H](c3ccc(OC)cc3)[C@H](NC(=O)c3ccc(OC(F)(F)F)cc3)C2=O)c1=O` (some centres unmarked) [Example 564], for which the figures for the EC50 in test [1] and in test [2] were 0.5 nM and 3.6 nM, respectively.
Turning to `COc1cc(C2CCN(C)CC2)nc(N2C(=O)[C@@H](NC(=O)c3ccc(OC(F)(F)F)cc3)[C@H](c3c(F)cc(OC)cc3F)[C@@H]2C)c1` [Example 565], the EC50 came to 720 nM in test [1] and 8.2 nM in test [2].
